We go through 3 compounds from ChEMBL document CHEMBL4699580, “Drophiobiolins A and B, Bioactive Ophiobolan Sestertepenoids Produced by Dreschslera gigantea” (J Nat Prod, 2020).

The subject of assay [1] is Digitaria sanguinalis. The assay is described as follows: Phytotoxicity against Digitaria sanguinalis leaves assessed as diameter of necrosis at 10^-3 M by leaf-puncture assay. Particulars: dose 0.001 M; 1000 µM. It counts as functional.
Assay [2] concerns Solanum lycopersicum. The experiment in a line: Phytotoxicity against Lycopersicon esculentum leaf assessed as diameter of necrosis at 10^-3 M by leaf-puncture assay. It is filed as functional. Conditions: dose 0.001 M; 1000 µM.
The test system of assay [3] is Chenopodium album. The assay is described as follows: Phytotoxicity against Chenopodium album leaf assessed as diameter of necrosis at 10^-3 M by leaf-puncture assay. Particulars: dose 0.001 M; 1000 µM. It is filed as functional.
Assay [4] deals with Digitaria sanguinalis. The assay is described as follows: Phytotoxicity against Digitaria sanguinalis leaf assessed as diameter of necrosis at 10^-4 M by leaf-puncture assay. It is filed as functional. Conditions: dose 0.0001 M; 100 µM.
Assay [5] deals with Solanum lycopersicum. The experiment in a line: Phytotoxicity against Lycopersicon esculentum leaf assessed as diameter of necrosis at 10^-4 M by leaf-puncture assay. Conditions: dose 0.0001 M; 100 µM. It counts as functional.
In assay [6] the test system is Chenopodium album. The experiment in a line: Phytotoxicity against Chenopodium album leaf assessed as diameter of necrosis at 10^-4 M by leaf-puncture assay. Conditions: dose 0.0001 M; 100 µM. It is filed as functional.
A further assay relates to HaCaT. The assay is described as follows: Cytotoxicity against human HaCaT cells assessed as reduction in cell viability at 0.5 to 10 uM after 24 hrs by MTT assay relative to control. It is filed as functional. Particulars: dose microM 0.5-10.
The subject of a further assay is A-431. The experiment in a line: Cytotoxicity against human A-431 cells assessed as reduction in cell viability at 0.5 to 10 uM after 24 hrs by MTT assay relative to control. It is filed as functional. Conditions: dose microM 0.5-10. On the technique in general: Formazan colour is commonly taken as a measure of viable cells.
The test system of assay [7] is HeLa. The assay is described as follows: Cytotoxicity against human HeLa cells assessed as reduction in cell viability at 0.5 to 10 uM after 24 hrs by MTT assay relative to control. It is filed as functional. Conditions: dose microM 0.5-10.
Assay [8] deals with HeLa. The assay is described as follows: Cytotoxicity against human HeLa cells assessed as reduction in cell viability after 24 hrs by MTT assay. It is filed as functional, cell-based.
In the next assay the test system is NCI-H1299. The experiment in a line: Cytotoxicity against human NCI-H1299 cells assessed as reduction in cell viability at 0.5 to 10 uM after 24 hrs by MTT assay. It counts as functional, cell-based. Conditions: dose microM 0.5-10, time 24.0 hrs.
In the next assay the test system is RD. The experiment in a line: Cytotoxicity against human RD cells assessed as reduction in cell viability relative to control. It counts as functional.
The test system of a further assay is B16-F10. The experiment in a line: Antiproliferative activity against mouse B16-F10 cells assessed as reduction in cell viability after 72 hrs by MTT assay. It counts as functional, cell-based. Particulars: B16-F10, 72 h.

pIC50: −log10 of the molar value. The source made the active and inactive calls. The rule behind the calls is not given here. Some results are limits rather than exact numbers.

As to `CC(C)=C[C@H]1C[C@H](C)[C@]2(CC[C@]3(C)C[C@@H]4C(C)=CC(=O)/C4=C(\CO)C(=O)C[C@H]32)O1`, the Activity was found to be 3 mm with Digitaria sanguinalis [1]; 2 mm in the assay with Solanum lycopersicum [2]; 3 mm in the assay on Chenopodium album [3]; 2 mm in the assay on Digitaria sanguinalis [4]; 2 mm in the assay on Solanum lycopersicum [5]; 1 mm in the assay on Chenopodium album [6]. Besides, the Activity entry in the assay on HaCaT is recorded as “<=63%”; with A-431 it was “<=72%”; in the assay on HeLa [7] it was “<=50%”. Moreover, the pIC50 in the assay with HeLa [8] was 5.00. Also, in the assay with NCI-H1299, the outcome was inactive.
`CC(C)=C[C@H]1C[C@H](C)[C@]2(CC[C@]3(C)C[C@H]4[C@H](C(=O)C[C@@]4(C)O)/C(C=O)=C\C[C@H]32)O1` [OPHIOBOLIN A]: the Activity came to 3 mm with Digitaria sanguinalis [1]; 70% with RD; 3 mm in the assay on Solanum lycopersicum [2]; 3 mm in the assay on Chenopodium album [3]; 3 mm in the assay with Digitaria sanguinalis [4]; 3 mm with Solanum lycopersicum [5]. Moreover, in the assay on Chenopodium album [6], the Activity is 2 mm. Besides, the pIC50 in the assay with B16-F10 was 6.54.
As to `CC1=CC(=O)[C@H]2/C(C=O)=C\C[C@@H]3[C@](C)(CC[C@]3(O)[C@@H](C)CCCC(C)(C)O)C[C@H]12`, the Activity is 3 mm in the assay on Digitaria sanguinalis [1]; 2 mm in the assay on Solanum lycopersicum [2]; 3 mm in the assay with Chenopodium album [3]; 2 mm in the assay on Digitaria sanguinalis [4]; 1 mm in the assay on Solanum lycopersicum [5]; 0 mm with Chenopodium album [6]. Besides, the Activity result with HaCaT is reported as “<=63%”; in the assay with A-431, “<=72%”; with HeLa [7], “<=50%”. The pIC50 in the assay with HeLa [8] is 5.00. Besides, in the assay on NCI-H1299, the outcome was inactive.

Broadly, the pIC50 is the negative decadic logarithm of the IC50, by convention in mol/L.
